Measured values: paper PMC9598282 (Antibiotics, 2022)
Several values for one entry are separate records, joined by “and”; a condition that tells them apart may be missing. Equal values may be shown once. Read-outs that look alike come from different tables or passages of the source. Values belong to the molecule of their own block, whether it stands above or below them.

Tests used:
A. baumannii 110193 [1] = assay: microbe, parasite or virus in culture; assay type: cell-based, Acinetobacter baumannii; conditions: Acinetobacter baumannii, 110193, agent alone, one value per checkerboard plate
Description: (§1) The adjuvant properties of the guanidinylated polymyxins were evaluated using the checkerboard assay as previously described. The bacterial solution was prepared as described in the antimicrobial susceptibility assay. The antibiotic of interest and the adjuvant were serially diluted two-fold along the x- and y-axis on a 96-well plate, respectively, resulting in varying concentrations of both agents in each well. Equal volumes of bacterial solution were added to the designated wells. The well consisting of bacterial solution served as the positive control, while the wells containing only media served as the negative control. The plate was then incubated at 37 °C for 18 h. After incubation, an Emax Plus microplate reader (Molecular Devices, Union City, CA, USA) was used to measure the OD at a wavelength of 590 nm to confirm the turbidity. The fractional inhibitory concentration (FIC) index was then determined to establish the relationship between the antibiotic and adjuvant. The FIC index corresponds to the sum of the FICs of the antibiotic and adjuvant. The FIC of each agent is calculated by dividing its MIC when it is used in combination by its MIC when used alone. FIC indices ≤0.5, 0.5 < x ≤ 4 and >4 indicate synergy, additivity and antagonism, respectively.

A. baumannii AB027 [2] = assay: microbe, parasite or virus in culture; assay type: cell-based, Acinetobacter baumannii; conditions: Acinetobacter baumannii, AB027, agent alone, one value per checkerboard plate
Description: as §1

A. baumannii ATCC 17978 [3] = assay: microbe, parasite or virus in culture; assay type: cell-based, Acinetobacter baumannii
Description: as §1

A. baumannii 92247 [4] = assay: microbe, parasite or virus in culture; assay type: cell-based, Acinetobacter baumannii; conditions: one value per checkerboard plate
Description: as §1

E. coli 107115 [5] = assay: microbe, parasite or virus in culture; assay type: cell-based, Escherichia coli; conditions: Escherichia coli, 107115, agent alone, one value per checkerboard plate
Description: as §1

E. coli ATCC 25922 [6] = assay: microbe, parasite or virus in culture; assay type: cell-based, Escherichia coli
Description: as §1

P. aeruginosa PA 107092 [7] = assay type: cell-based, Pseudomonas aeruginosa
Description: as §1

P. aeruginosa PA 88949 [8] = assay type: cell-based, Pseudomonas aeruginosa; conditions: one value per checkerboard plate
Description: as §1

P. aeruginosa PA 86052 [9] = assay type: cell-based, Pseudomonas aeruginosa; conditions: one value per checkerboard plate
Description: as §1

P. aeruginosa PA 109084 [10] = assay type: cell-based, Pseudomonas aeruginosa
Description: as §1

P. aeruginosa 101243 [11] = assay: Checkerboard assay; assay type: cell-based, Pseudomonas aeruginosa; conditions: one value per checkerboard plate
Description: as §1

[12] = system: P. aeruginosa P264-104354; assay: Checkerboard assay; assay type: cell-based, Pseudomonas aeruginosa; conditions: Pseudomonas aeruginosa, P264104354, agent alone, one value per checkerboard plate
Description: as §1

P. aeruginosa P259-96918 [13] = assay: Checkerboard assay; assay type: cell-based, Pseudomonas aeruginosa; conditions: Pseudomonas aeruginosa, P25996918; agent alone, one value per checkerboard plate
Description: as §1

[14] = system: P. aeruginosa P262-101856; assay: Checkerboard assay; assay type: cell-based, Pseudomonas aeruginosa; conditions: one value per checkerboard plate
Description: as §1

P. aeruginosa PAO1 [15] = assay: microbe, parasite or virus in culture; assay type: cell-based, Pseudomonas aeruginosa
Description: as §1

P. aeruginosa 114228 [16] = assay: microbe, parasite or virus in culture; assay type: cell-based, Pseudomonas aeruginosa; conditions: one value per checkerboard plate
Description: as §1

P. aeruginosa PA 107092 [17] = assay: Time-kill assay; assay type: cell-based, Pseudomonas aeruginosa; conditions: monotherapy, 8 μg/mL
Description: To study the time-dependent killing effects of the drug combinations, the time-kill kinetics were assessed. The time-kill assay was performed following the 8 μM (2 μg/mL) concentration of avibactam used in the checkerboard assay. […] This concentration also corresponds to the susceptibility breakpoint of both β-lactams.
For the preparation of the bacterial solution, an overnight grown culture was diluted in 0.85% saline solution and adjusted to 0.5 McFarland turbidity. […] The culture tubes were incubated at 37 °C, shaking at 250 rpm. At the appointed time intervals, a 100-μL aliquot was taken from each tube, serially diluted in phosphate-buffered saline (PBS) and plated on LB agar plates. The plates were incubated at 37 °C, and bacterial colonies were counted after 18 h. The bactericidal or bacteriostatic activity is determined based on the decrease in CFU over the time period. Bactericidal activity corresponds to ≥3 log10 reduction in CFU/mL, while bacteriostatic activity corresponds to <3 log10 reduction in CFU/mL.

A. baumannii AB031 = assay: Checkerboard assay; assay type: cell-based, Acinetobacter baumannii; conditions: Acinetobacter baumannii, AB031, agent alone, one value per checkerboard plate
Description: as §1

P. aeruginosa 101243 [18] = assay type: cell-based, Pseudomonas aeruginosa; conditions: colistin-resistant isolate
Description: (§2) For the preparation of the bacterial solution, overnight grown culture was diluted in 0.85% saline solution, adjusted to 0.5 McFarland turbidity and further diluted in Mueller–Hinton broth for inoculation to a final concentration of 5 × 10^5 colony forming units/mL (CFU/mL). The agents were serially diluted two-fold in a 96-well plate, and equal volumes of bacterial solution were subsequently added to the designated wells. The well consisting of bacterial solution served as the positive control, while the well containing only media served as the negative control. The plate was then incubated at 37 °C for 18 h. After incubation, an Emax Plus microplate reader (Molecular Devices, Union City, CA, USA) was used to measure the optical density (OD) at a wavelength of 590 nm to confirm the turbidity. The antibacterial activity corresponded to the MIC, which is defined as the lowest concentration of the agent necessary to inhibit visible bacterial growth.

[19] = system: P. aeruginosa P264-104354; assay type: cell-based, Pseudomonas aeruginosa; conditions: colistin-susceptible MDR isolate
Description: as §2

P. aeruginosa P259-96918 [20] = assay type: cell-based, Pseudomonas aeruginosa; conditions: colistin-susceptible MDR isolate
Description: as §2

P. aeruginosa PAO1 [21] = assay type: cell-based, Pseudomonas aeruginosa; conditions: wild-type
Description: as §2

P. aeruginosa 114228 [22] = assay type: cell-based, Pseudomonas aeruginosa; conditions: colistin-resistant isolate
Description: as §2

[23] = system: P. aeruginosa P262-101856; assay type: cell-based, Pseudomonas aeruginosa; conditions: colistin-susceptible MDR isolate
Description: as §2

E. coli 94474 = assay type: cell-based, Escherichia coli; conditions: colistin-resistant isolate
Description: as §2

E. coli ATCC 25922 [24] = assay type: cell-based, Escherichia coli; conditions: wild-type
Description: as §2

E. coli 107115 [25] = assay type: cell-based, Escherichia coli; conditions: colistin-susceptible MDR isolate
Description: as §2

E. coli 94393 = assay type: cell-based, Escherichia coli; conditions: colistin-resistant isolate
Description: as §2

E. cloacae 121187 = assay type: cell-based, Enterobacter cloacae; conditions: colistin-resistant isolate
Description: as §2

E. cloacae 118564 = assay type: cell-based, Enterobacter cloacae; conditions: colistin-resistant isolate
Description: as §2

HEK293 cells = assay: Cell viability assay (PrestoBlue); assay type: cell-based, human; conditions: 48 h
Description: (§3) The cytotoxicity of the guanidinylated polymyxins was evaluated using the cell viability assay as previously described. Human embryonic kidney cells (HEK293) and liver carcinoma cells (Hep G2) were cultured in flasks with Dulbecco’s Modified Eagle’s Medium (DMEM) supplemented with 10% fetal bovine serum. The cells were incubated at 5% CO2 in a humidified atmosphere at 37 °C. Equal volumes of media (50 μL) containing approximately 8000 cells (Hek293) or 5000 cells (HepG2) were added to wells in 96-well plates. The wells containing only media with no cells served as blanks. The plate was incubated for 24 h. Double the final desired concentrations of the agent were subsequently added to each well (experimental and blanks) in a volume of 50 μL. After 48 h incubation, PrestoBlue reagent from Invitrogen (Waltham, MA, USA,) was added to a final concentration of 10% (v/v), and plates were incubated for an additional1 h at 5% CO2. Fluorescence (excitation/emission, 560/590 nm) was measured with a SpectraMax M2 plate reader (Molecular Devices, United States). Values from the blank wells were subtracted from the corresponding wells with cells. The cell viability relative to the controls with a vehicle was calculated. The plots indicate the mean ± standard deviation of two experiments with five samples each. […]

Hep G2 cells = assay: Cell viability assay (PrestoBlue); assay type: cell-based, human; conditions: 48 h
Description: as §3

A. baumannii 110193 [26] = assay type: cell-based, Acinetobacter baumannii; conditions: colistin-susceptible MDR isolate
Description: as §2

A. baumannii AB027 [27] = assay type: cell-based, Acinetobacter baumannii; conditions: colistin-susceptible MDR isolate
Description: as §2

A. baumannii ATCC 17978 [28] = assay type: cell-based, Acinetobacter baumannii; conditions: wild-type
Description: as §2

A. baumannii LAC-4 = assay type: cell-based, Acinetobacter baumannii; conditions: colistin-susceptible MDR isolate
Description: as §2

A. baumannii 92247 [29] = assay type: cell-based, Acinetobacter baumannii; conditions: colistin-resistant isolate
Description: as §2

P. aeruginosa PA 107092 [30] = assay: MIC, broth microdilution; assay type: cell-based, Pseudomonas aeruginosa; conditions: β-lactamase harboring isolate
Description: as §2

P. aeruginosa PA 88949 [31] = assay: MIC, broth microdilution; assay type: cell-based, Pseudomonas aeruginosa; conditions: β-lactamase harboring isolate
Description: as §2

P. aeruginosa PA 86052 [32] = assay: MIC, broth microdilution; assay type: cell-based, Pseudomonas aeruginosa; conditions: β-lactamase harboring isolate
Description: as §2

P. aeruginosa PA 109084 [33] = assay: MIC, broth microdilution; assay type: cell-based, Pseudomonas aeruginosa; conditions: β-lactamase harboring isolate
Description: as §2

K. pneumoniae 113250 = assay type: cell-based, Klebsiella pneumoniae; conditions: colistin-resistant isolate
Description: as §2

K. pneumoniae 113254 = assay type: cell-based, Klebsiella pneumoniae; conditions: colistin-resistant isolate
Description: as §2

[34] = one value per checkerboard plate

MIC (A. baumannii 110193 [1]): 64 µg/mL
MIC (A. baumannii AB027 [2]): 2050 µg/mL
Absolute MIC of antibiotic at 2 μg/mL GCol (A. baumannii ATCC 17978 [3]): 4 µg/mL
Absolute MIC of antibiotic at 2 μg/mL GPMB (A. baumannii ATCC 17978 [3]): 4 µg/mL
MIC (A. baumannii ATCC 17978 [3]; Acinetobacter baumannii, ATCC17978, 18 h, agent alone, one value per checkerboard plate, read-out: MIC alone): 16 µg/mL
MIC (A. baumannii 92247 [4]; Acinetobacter baumannii, 92247, agent alone): 16 µg/mL
MIC alone (A. baumannii 92247 [4]; agent alone): 32 µg/mL
MIC (E. coli 107115 [5]): 512 µg/mL
Absolute MIC of antibiotic at 2 μg/mL GCol (E. coli ATCC 25922 [6]): 0.063 µg/mL
Absolute MIC of antibiotic at 2 μg/mL GPMB (E. coli ATCC 25922 [6]): 0.063 µg/mL
MIC (E. coli ATCC 25922 [6]; Escherichia coli, ATCC25922, 18 h, agent alone, one value per checkerboard plate, read-out: MIC alone): 0.25 µg/mL
MIC antibiotic alone (P. aeruginosa PA 107092 [7]; [34]): 64 µg/mL
MIC antibiotic alone (P. aeruginosa PA 107092 [7]; plates with 8 μM avibactam): 16 µg/mL and 8 µg/mL
MIC antibiotic alone (P. aeruginosa PA 88949 [8]): 32 µg/mL
MIC antibiotic alone (P. aeruginosa PA 86052 [9]): 64 µg/mL
MIC antibiotic alone (P. aeruginosa PA 109084 [10]; [34]): 64 µg/mL and 128 µg/mL
MIC antibiotic alone (P. aeruginosa PA 109084 [10]; plates with 8 μM avibactam): 16 µg/mL
MIC (P. aeruginosa 101243 [11]; Pseudomonas aeruginosa, 101243, agent alone): 64 µg/mL
MIC alone (P. aeruginosa 101243 [11]; agent alone): 32 µg/mL
MIC [12]: 64 µg/mL
MIC (P. aeruginosa P259-96918 [13]): 512 µg/mL
MIC ([14]; Pseudomonas aeruginosa, P262101856, agent alone): 8 µg/mL
MIC alone ([14]; agent alone): 16 µg/mL
Absolute MIC of antibiotic at 4 μg/mL GCol (P. aeruginosa PAO1 [15]): 0.25 µg/mL
MIC (P. aeruginosa PAO1 [15]; Pseudomonas aeruginosa, PAO1, 18 h, agent alone, one value per checkerboard plate, read-out: MIC alone): 2 µg/mL
MIC (P. aeruginosa 114228 [16]; Pseudomonas aeruginosa, 114228, agent alone): 4 µg/mL
MIC alone (P. aeruginosa 114228 [16]; agent alone): 8 µg/mL
MIC (A. baumannii AB031): 32 µg/mL
Molecule: CC(C)(O/N=C(\C(=O)N[C@@H]1C(=O)N2C(C(=O)[O-])=C(C[n+]3ccccc3)CS[C@H]12)c1csc(N)n1)C(=O)O [Ceftazidime]
log10 increase (bacterial growth) over 24 h (P. aeruginosa PA 107092 [17]): ~ 2 log10

Molecule: polymyxin B [PMB]
MIC (P. aeruginosa 101243 [18]): >128 µg/mL
MIC [19]: 2 µg/mL
MIC (P. aeruginosa P259-96918 [20]): ≤0.0625 µg/mL
MIC (P. aeruginosa PAO1 [21]): 0.5 µg/mL
MIC (P. aeruginosa 114228 [22]): 64 µg/mL
MIC [23]: 0.5 µg/mL
MIC (E. coli 94474): 16 µg/mL
MIC (E. coli ATCC 25922 [24]): 1 µg/mL
MIC (E. coli 107115 [25]): ≤0.125 µg/mL
MIC (E. coli 94393): 2 µg/mL
MIC (E. cloacae 121187): >64 µg/mL
MIC (E. cloacae 118564): >64 µg/mL
concentration up to which HEK293 cells maintained >90% viability (HEK293 cells): 125 µM
concentration up to which Hep G2 cells maintained 100% viability (Hep G2 cells): 25 µM
MIC (A. baumannii 110193 [26]): 1 µg/mL
MIC (A. baumannii AB027 [27]): 0.25 µg/mL
MIC (A. baumannii ATCC 17978 [28]): 2 µg/mL
MIC (A. baumannii LAC-4): 0.5 µg/mL
MIC (A. baumannii 92247 [29]): 8 µg/mL
MIC (P. aeruginosa PA 107092 [30]): 0.25 µg/mL
MIC (P. aeruginosa PA 88949 [31]): 0.5 µg/mL
MIC (P. aeruginosa PA 86052 [32]): 0.25 µg/mL
MIC (P. aeruginosa PA 109084 [33]): 0.25 µg/mL
MIC (K. pneumoniae 113250): >64 µg/mL
MIC (K. pneumoniae 113254): >64 µg/mL
